Laboratory results as given in patent US12070467B2, “Method of treating ciliated tissue using CSA micelles” (Brigham Young University, priority 2018, dated 2024).
“And” between values parts separate entries of the source, which are not always exact repeats. Equal entries are not always repeated. Where two headings read alike, the source gives them in different places.

Tests used:
S. aureus ATCC 25923 = experiment: Minimum inhibitory concentration (MIC), broth microdilution; type: cell-based, Staphylococcus aureus; details: 37° C., 18-20 h
Protocol: (§1) Staphylococcus aureus (ATCC 25923) and Pseudomonas aeruginosa (ATCC 47085 (PA01)) were grown from fresh colonies in trypticase soy broth (TSB) and incubated overnight at 37° C. Fungal cultures, Candida albicans (ATCC 90028) and Candida auris (CDC 0382, 0384, 0387, and 0389), were grown overnight in sabouraud dextrose broth (SDB) or Roswell Park Memorial Institute medium (RPMI). Cultures of bacteria and fungi were centrifuged, and pellets were washed three times with phosphate buffered saline (PBS) and further resuspended in fresh PBS. Bacterial cultures were diluted in TSB and fungal cultures were diluted in SDB or RPMI to […] or 10^6 CFU/mL (optical density (OD) readings at 600 nm).
(§2) Minimum inhibitory concentrations (MICs) were measured using the broth microdilution protocol described by the Clinical and Laboratory Standards Institute. […] Aliquots (100 μL) of a prepared inoculum (10^6 CFU/mL for bacteria and […] CFU/mL for fungi) were added, and plates were incubated at 37° C. for 18-20 h. Bacterial or fungal growth was visually observed to determine the MICs. Negative and positive controls were included for each set of MIC measurements. For studies with pluronic, the surfactant was added at 4% and 5% to the initial inocula in each experiment. Measurements were performed in triplicate for all susceptibility tests.

P. aeruginosa ATCC 47085 = experiment: as above; type: cell-based, Pseudomonas aeruginosa; details: 37° C., 18-20 h
Protocol: as §1, §2

C. albicans ATCC 90028 = experiment: as above; type: cell-based, Candida albicans; details: 37° C., 18-20 h
Protocol: as §1, §2

[1] = system: bacterial and fungal biofilms: S. aureus (ATCC 25923), P. aeruginosa (ATCC 47085), C. albicans (ATCC 90028), C. auris (CDC 384); experiment: Antibiofilm activity by plating organisms freed from biofilms and counting colonies (FIG. 2); type: cell-based; details: 100 μg/mL, 48 h biofilms
Protocol: Consequently, this concentration was used as a target for antibacterial and antifungal activity, as well as in tolerability studies with trachea and lung explants. A key preliminary question in these studies is whether the pluronic alone has any effect on bacteria and fungi. […] In these assays, biofilms were generated over 48 h, and after treatment, bacterial and fungal counts were determined by plating organisms freed from biofilms and counting colonies. Detection limits for the experiments were two logs. […] Antibiofilm results were determined through the plating of microorganisms freed from biofilms, culturing, and plate counting. In FIG. 2, white bars show remaining S. aureus (ATCC 25923); black bars show remaining P. aeruginosa (ATCC 47085); gray bars show remaining C. albicans (ATCC 90028); hashed bars show remaining C. auris (CDC 384). The Detection limit was 2 logs. * indicates p<0.05 relative to controls and to pluronic alone.

[2] = system: C. albicans (ATCC 90028) and C. auris (CDC 384) in trachea and lung explants; experiment: Ex vivo antifungal efficacy in porcine trachea and lung explants (FIGS. 7A, 7B); type: cell-based, Candida albicans, Candida auris; details: 24 h
Protocol: Using 5 mm^3 explant cubes of porcine trachea and lung, ex vivo antifungal efficacy experiments were conducted. Cubes were dissected using a sterile razor blade form the ventral surface of the left caudal lobe of three sets of porcine lungs. After trimming excess tissues away from the explants to produce uniform of size (5 mm), explants were incubated at 37° C. in DMEM/RPMI inoculated with 10^6 CFU/explant of C. auris (CDC 0384) or C. albicans (ATCC 90028) in a 48-well plate. […] Treated explants were incubated for 24 h at 37° C. After incubation, tissues were suspended in 250 μL of neutralizing broth and vortex on the highest setting for 4 min. Samples were then serially diluted in PBS, plated on 5% sheep blood TSA plates, and incubated at 37° C. for 48 h.
FIGS. 7A and 7B are bar graphs comparing the antifungal activity of CSA compositions with and without micelles on fungi, and against a control without any CSA. White bars shown remaining C. albicans (ATCC 90028); black bars show remaining C. auris (CDC 384).

[3] = system: cilia on porcine trachea explants; details: for Number of explants (out of 12) clearing beads, <10 min / Number of explants (out of 12) clearing beads, <20 min / Number of explants (out of 12) clearing beads, <30 min / Number of explants (out of 12), No Clearance: CSA-131 100 μg/mL for 1 h; for Number of explants (out of 12) clearing beads, <20 min: between 10 and 20 min; for Number of explants (out of 12) clearing beads, <30 min: between 20 and 30 min; for Number of explants (out of 12), No Clearance: no clearance (>30 min)
Protocol: In this example, the effect of CSA compositions with and without micelles was tested using ciliated porcine lung tissue. […] An ex vivo assay was used to evaluate pluronic-containing formulations, and in this assay the beating of cilia can be actively observed. […] This method involves sectioning porcine trachea, supported in a nutrient medium, placing small beads on one side of the explant, and measuring the transfer (clearance) of the beads to the other side of the explants (FIG. 5). […] Twelve explants were used for each test condition, and the results are reported as the number clearing beads in a given amount of time.
Normal healthy porcine trachea and lung tissue was excised very fresh from slaughter. After aseptic collection, whole tissues were transported in a 1:1 mixture of Dulbecco's modified Eagle's medium (DMEM) and RPMI, which was pre-warmed and supplemented with penicillin-streptomycin-glutamine 100× (Hyclone, Logan, UT, USA). Explants were washed by tissue immersion three to four times in warm, fresh DMEM/RPMI media. Explants were maintained by continuous immersion in DMEM/RPMI media in a 5% CO2-95% air mixture in a humidified incubator at 37° C.
Tracheas were washed and extra exterior tissues to the cartilage were removed. Tracheas were opened and cut into approximately 2×1 cm explants consisting of the respiratory mucosa and underlying cartilage. […] Explants were then placed on small circular filter papers, which were placed on top of 1% agarose gel plugs bathed in medium in 6-well plates. […] Five microliters of a suspension of 1 μm diameter polystyrene microsphere beads (Polysciences, Inc., Warrington, PA, USA) were pipetted on one edge of epithelial surfaces and evaluated for their complete clearance (movement) across the surface with categorization of clearance in under 10 min, between 10 and 20 min, between 20 and 30 min, and no clearance (>30 min). Independent replicates were completed for each time point. Outcomes were then counted and a percentage of clearance was determined.

CCCCCCCCCCCCNCCC[C@@H](C)[C@H]1CC[C@H]2[C@@H]3[C@H](OCCCN)C[C@@H]4C[C@H](OCCCN)CC[C@]4(C)[C@H]3C[C@H](OCCCN)[C@]12C.Cl.Cl.Cl.Cl [CSA-131]
MIC (S. aureus ATCC 25923): 1 µg/mL
MIC (P. aeruginosa ATCC 47085): 2 µg/mL
MIC (C. albicans ATCC 90028): 0.5 µg/mL
Reduction of bacterial and fungal counts from biofilms ([1]; with pluronic): > 99.99%
Reduction of bacterial and fungal counts from biofilms ([1]; with pluronic, counts lowered to the detection limit (two logs)): > four
Reduction of bacterial and fungal counts from biofilms ([1]; without pluronic): > 99.99%
Reduction of bacterial and fungal counts from biofilms ([1]; without pluronic, counts lowered to the detection limit (two logs)): > four
Decrease of fungal counts in treated explants vs control explants ([2]; CSA-131 alone): up to 99%
Decrease of fungal counts in treated explants vs control explants ([2]; CSA-131 alone, p<0.05 vs controls): one and a half to two
Decrease of fungal counts in treated explants vs control explants ([2]; CSA-131 with pluronic 4%): up to 99%
Decrease of fungal counts in treated explants vs control explants ([2]; CSA-131 with pluronic 4%, p<0.05 vs controls): one and a half to two
Decrease of fungal counts in treated explants vs control explants ([2]; CSA-131 with pluronic 5%): up to 99%
Decrease of fungal counts in treated explants vs control explants ([2]; CSA-131 with pluronic 5%, p<0.05 vs controls): one and a half to two
Number of explants (out of 12) clearing beads, <10 min ([3]; 0% pluronic): 3/12
Number of explants (out of 12) clearing beads, <20 min ([3]; 0% pluronic): 2/12
Number of explants (out of 12) clearing beads, <30 min ([3]; 0% pluronic): 1/12
Number of explants (out of 12), No Clearance ([3]; 0% pluronic): six of 12 and 6/12
Number of explants (out of 12) clearing beads, <10 min ([3]; 1% pluronic): 4/12
Number of explants (out of 12) clearing beads, <20 min ([3]; 1% pluronic): 2/12
Number of explants (out of 12) clearing beads, <30 min ([3]; 1% pluronic): 1/12
Number of explants (out of 12), No Clearance ([3]; 1% pluronic): 5/12
Number of explants (out of 12) clearing beads, <10 min ([3]; 2% pluronic): 7/12
Number of explants (out of 12) clearing beads, <20 min ([3]; 2% pluronic): 3/12
Number of explants (out of 12) clearing beads, <30 min ([3]; 2% pluronic): 2/12
Number of explants (out of 12) clearing beads, <10 min ([3]; 3% pluronic): 7/12
Number of explants (out of 12) clearing beads, <20 min ([3]; 3% pluronic): 4/12
Number of explants (out of 12) clearing beads, <30 min ([3]; 3% pluronic): 1/12
Number of explants (out of 12) clearing beads, <10 min ([3]; 4% pluronic): 8/12
Number of explants (out of 12) clearing beads, <20 min ([3]; 4% pluronic): 4/12
Number of explants (out of 12) clearing beads, <10 min ([3]; 5% pluronic): 10/12
Number of explants (out of 12) clearing beads, <20 min ([3]; 5% pluronic): 2/12
Influence on bead clearance ([3]; CSA-131 100 μg/mL with pluronic (4%)): did not influence bead clearance
Bead clearance / ciliary activity compared with the control ([3]; CSA-131 100 μg/mL, 5% pluronic): the same as the control
